In data set [1] the test system is mycoplasma. The data set can be described thus: RT-PCR of mycoplasma DNA in HEK293 cells after ICG light treatment. The class given is cell-based. The settings on record: 50 μg/mL ICG + 780 nm laser, 10 minutes. The method, then:
(§1) (A) After HEK293 cells are treated with 50 μg/mL ICG and irradiated with near-infrared light excitation, the expression level of mycoplasma DNA in each group was observed by RT-PCR and DNA electrophoresis. (B) Results of DNA electrophoresis were quantitated by the Image J software (p-value: *<0.05, **<0.01, and ***<0.001).
(§2) HT1080-1B3 and HEK293 cells were collected through trypsin-EDTA reaction and then seeded into a six-well plate at a cell number of 3×10^5 cells/well. The next day, a working concentration of 50 μg/mL of ICG was added to each well, and the reaction took place in the dark at 37° C. for 1 hour. After the reaction was completed, the cells were irradiated with near-infrared light of 780 nm wavelength for 10 minutes, the supernatant was removed, and the cells were washed twice with PBS. Then, the cells were collected into a 1.5 mL test tube with trypsin-EDTA, 100 μL KAPA rapid extraction buffer was added to the test tube, and the test tube was placed in a dry bath at 75° C. for 10 minutes and at 95° C. for 5 minutes. Then, DNA samples were prepared according to the operating manual of the e-Myco™ VALID Mycoplasma PCR detection kit, and PCR reaction was performed by PCR instrument (Applied Biosystems) under setting conditions (30 cycles: 95° C./3 minutes, 95° C./15 seconds, 55° C./15 seconds, 72° C./20 seconds and 72° C./1 minute). […]

In data set [2] the test system is mycoplasma. The data set can be described thus: DAPI staining of mycoplasma in HEK293 cells after ICG light treatment. Format: cell-based. Particulars: 50 μg/mL ICG + 780 nm laser, 10 minutes. The method, then: After HEK293 cells are treated with 50 μg/mL ICG and irradiated with near-infrared light excitation, the distribution of mycoplasma in each group was observed by DAPI staining (the red arrow indicates the expression position of mycoplasma). CTL: control group; −Laser: not excited by laser; +Laser: excited by laser.
(§3) First, HT1080-1B3 and HEK293 cells were collected through trypsin-EDTA reaction and then seeded into a six-well plate at a cell number of 3×10^5 cells/well. The next day, a working concentration of 50 μg/mL of ICG was added to each well, and the reaction took place in the dark at 37° C. for 1 hour. After the reaction was completed, the cells were irradiated with near-infrared light of 780 nm wavelength for 10 minutes. The supernatant was removed, and the cells were washed twice with PBS. Then, a working concentration of 1 μg/ml DAPI was added to each well, and the reaction took place in the dark at room temperature for 15 minutes. Finally, washed twice with PBS, and the quantitative changes of stained mycoplasma chromosomes were observed under the UV light mode of an inverted fluorescence microscope (Nikon).

Data set [3] has as its system mycoplasma. The data set can be described thus: RT-PCR of mycoplasma DNA in HT1080-1B3 cells after ICG light treatment. Format: cell-based. The settings on record: HT-1080-1B3 cells (overexpress OATP1B3); 50 μg/mL indocyanine green + 780 nm laser, 10 minutes. The method, then: as §1, §2
Data set [4] concerns HEK293 cells. The data set can be described thus: MTT analysis of cell survival rate after ICG and near-infrared light irradiation. Format: cell-based, human. Particulars: ICG at different concentrations + near-infrared light (780 nm) irradiation. The source says:
(§4) After administering ICG and near-infrared light (780 nm) excitation and irradiation to HEK293 cells and HT-1080-1B3 cells, observing the cell survival rates of different concentration groups by MTT analysis.

Data set [5] relates to HT-1080-1B3 cells. Described as above. Format: cell-based. Particulars: ICG at different concentrations + near-infrared light (780 nm) irradiation.
Source text: as §4

Data set [6] deals with mycoplasma. The data set can be described thus: DAPI staining of mycoplasma in HT1080-1B3 cells after ICG light treatment. The class given is cell-based. The settings on record: HT-1080-1B3 cells (overexpress OATP1B3); 50 μg/mL indocyanine green + 780 nm laser, 10 minutes. The method, then:
After HT1080-1B3 cells are treated with 50 μg/mL ICG and irradiated with near-infrared light excitation, the distribution of mycoplasma in each group was observed by DAPI staining (the red arrow indicates the expression position of mycoplasma). CTL: control group; −Laser: not excited by laser; +Laser: excited by laser.
as §3

Turning to `CC1(C)C(/C=C/C=C/C=C/C=C2\N(CCCCS(=O)(=O)O)c3ccc4ccccc4c3C2(C)C)=[N+](CCCCS(=O)(=O)[O-])c2ccc3ccccc3c21` [ICG, Indocyanine green], the “expression level of mycoplasma DNA (RT-PCR, DNA electrophoresis)” value in data set [1] was “significantly reduce”; in data set [3], “no expression level of mycoplasma DNA was observed”. The “number of mycoplasma bacteria (DAPI staining)” value in data set [2] is listed as “significantly reduced”; in data set [6], “disappears”. The “cell survival rate (MTT analysis)” value in data set [4] and in data set [5] was “no negative impact on cells” throughout.

The values are drawn from US20250375525A1, “USE OF INDOCYANINE GREEN IN ANTIBACTERIAL OR BACTERICIDAL APPLICATION” (Buddhist Tzu Chi Medical Foundation, priority 2024, published 2025).
